# Columns and labels:
# Test in all cases: relative viability (nuclei count vs DMSO), 5 days (fraction); higher = more cells survive
# [1] = compound: C1=CC2=C(C=C(C(=C2N=C1)O)N=NC3=CC4=C(C=C3)C=C(C=C4)S(=O)(=O)O)S(=O)(=O)O + N=C(N)NC(=N)NCCc1ccccc1 [Phenformin] (partner 250 µM)
# How it was run: (§1)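 Lung cancer cell lines in 1536-well plates got either a single drug or a fixed anchor-drug dose together with five library-drug doses (not always all listed) in √10 steps, by pin tool, on the day after seeding. Nuclei were counted after 5 days, and relative viability is the treated-to-vehicle ratio of nuclei counts. Values are medians of duplicate plates.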
# [2] = compound: C1=CC2=C(C=C(C(=C2N=C1)O)N=NC3=CC4=C(C=C3)C=C(C=C4)S(=O)(=O)O)S(=O)(=O)O + Nc1ncn([C@H]2C[C@H](O)[C@@H](CO)O2)c(=O)n1 [Decitabine] (partner 2 µM)
# How it was run: as §1
# [3] = compound: O=C(NC1CCNCC1)c1n[nH]cc1NC(=O)c1c(Cl)cccc1Cl [AT-7519] + C[C@]1(O)C[C@@H](c2nc(-c3ccc4ccc(-c5ccccc5)nc4c3)c3c(N)nccn32)C1 [Linsitinib] (partner 1 µM)
# How it was run: as §1
# [4] = compound: C1=CC2=C(C=C(C(=C2N=C1)O)N=NC3=CC4=C(C=C3)C=C(C=C4)S(=O)(=O)O)S(=O)(=O)O + CCNC(=O)c1noc(-c2cc(C(C)C)c(O)cc2O)c1-c1ccc(CN2CCOCC2)cc1 [Luminespib] (partner 0.01 µM)
# How it was run: as §1
Cell Line,relative viability ([1]; first compound 0.08 µM),relative viability ([1]; first compound 0.253 µM),relative viability ([1]; first compound 0.8 µM),relative viability ([1]; first compound 2.53 µM),relative viability ([1]; first compound 8 µM),relative viability ([2]; first compound 0.08 µM),relative viability ([2]; first compound 0.253 µM),relative viability ([2]; first compound 0.8 µM),relative viability ([2]; first compound 2.53 µM),relative viability ([2]; first compound 8 µM),relative viability ([3]; first compound 0.01 µM),relative viability ([3]; first compound 0.03162 µM),relative viability ([3]; first compound 0.3162 µM),relative viability ([3]; first compound 1 µM),relative viability ([4]; first compound 0.08 µM),relative viability ([4]; first compound 0.253 µM),relative viability ([4]; first compound 0.8 µM),relative viability ([4]; first compound 2.53 µM),relative viability ([4]; first compound 8 µM)
NCI-H1975,0.424,0.434,0.413,0.386,0.39,0.462,0.393,0.405,0.384,0.408,0.917,0.795,0.746,0.172,0.194,0.2,0.206,0.264,0.252
NCI-H1944,0.237,0.199,0.19,0.199,0.193,0.448,0.437,0.446,0.376,0.38,1.16,1.02,1.12,1.13,0.826,0.696,0.802,0.741,0.721
LU99A,0.989,0.796,0.869,0.721,0.631,0.91,0.818,0.767,0.838,0.705,0.514,0.577,0.54,0.404,0.234,0.35,0.216,0.228,0.27
SW 1573,0.406,0.478,0.418,0.3,0.296,0.55,0.494,0.419,0.494,0.275,0.762,0.664,0.739,0.398,0.174,0.598,0.268,0.372,0.216
NCI-H2347,0.356,0.318,0.438,0.558,0.303,0.586,0.61,0.602,0.629,0.614,1.08,1.01,0.919,0.793,0.77,0.523,0.36,0.824,0.317
NCI-H2009,0.498,0.455,0.504,0.498,0.441,0.351,0.327,0.358,0.373,0.297,1.24,1.24,1.15,0.676,1.08,0.995,1.04,1.14,0.623
HCC-15,0.491,0.481,0.457,0.422,0.444,0.723,0.689,0.637,0.625,0.596,0.961,0.879,0.724,0.43,0.345,0.383,0.304,0.428,0.368
HCC-44,0.126,0.218,0.249,0.17,0.184,0.935,0.932,0.93,1.04,0.949,0.677,0.62,0.678,0.543,,1.08,1.05,1.19,1.01
COR-L23,0.488,0.43,0.422,0.419,0.45,0.495,0.448,0.421,0.508,0.407,0.82,0.776,0.481,0.137,0.748,0.581,0.64,0.726,0.738
NCI-H727,0.564,0.474,0.502,0.627,0.572,0.951,0.854,0.793,0.929,0.801,0.287,0.309,0.163,0.167,0.478,0.45,0.327,0.346,0.359
NCI-H2087,0.469,0.447,0.452,0.455,0.459,0.244,0.259,0.222,0.131,0.24,1.07,1.1,0.78,0.141,0.169,0.191,0.153,0.231,0.237
BEN,0.254,0.274,0.267,0.298,0.234,0.735,0.745,0.635,0.804,0.688,0.887,0.894,0.864,0.785,0.295,0.353,0.424,0.627,0.232
LCLC-103H,0.33,0.356,0.298,0.358,0.369,0.811,0.774,0.655,0.744,0.732,0.955,1.04,1.1,1.13,1.09,0.902,1.09,0.96,0.957
EKVX,0.237,0.225,0.235,0.232,0.139,0.334,0.366,0.366,0.325,0.263,0.963,0.949,0.928,0.959,0.875,0.87,0.848,0.888,0.799
LXF-289,0.54,0.511,0.509,0.485,0.507,0.412,0.383,0.395,0.371,0.31,0.957,1.02,1.04,0.933,0.788,0.645,0.73,0.681,0.642
ABC-1,0.236,0.245,0.236,0.237,0.245,1.14,1.16,0.936,1.39,1.09,0.784,0.715,0.788,0.243,0.609,,,0.521,0.623
NCI-H650,0.413,0.42,0.437,0.49,0.309,0.324,0.354,0.329,0.317,0.31,0.854,0.791,1.04,0.693,0.876,0.874,0.691,0.889,0.76
NCI-H2085,0.795,0.743,0.687,0.752,0.755,0.561,0.53,0.496,0.631,0.546,0.904,0.857,0.726,0.637,0.409,0.419,0.426,0.367,0.44
NCI-H1793,0.416,0.416,0.346,0.442,0.379,0.527,0.521,0.409,0.47,0.49,1.06,0.945,0.74,0.684,0.22,0.189,0.184,0.264,0.16
LC-2-ad,0.575,0.553,0.548,0.588,0.651,0.909,0.744,0.834,0.808,0.812,0.754,0.832,0.908,0.464,0.989,1.04,1.05,1.1,0.834
COR-L 105,0.459,0.464,0.421,0.441,0.463,0.711,0.705,0.65,0.647,0.567,0.962,0.907,0.867,0.516,0.786,0.722,0.99,0.697,0.489
NCI-H1355,0.484,0.432,0.44,0.481,0.434,0.4,0.363,0.362,0.353,0.352,0.795,0.737,0.79,0.722,0.737,0.735,0.646,0.68,0.775
H3255,0.348,0.377,0.416,0.394,0.421,0.652,0.635,0.58,0.655,0.585,0.964,0.888,0.909,0.788,0.838,0.876,0.864,0.855,0.78
NCI-H1993,0.492,0.488,0.537,0.528,0.527,0.573,0.669,0.624,0.59,0.634,0.707,0.738,0.663,0.585,0.83,0.865,0.853,1.09,0.589
NCI-H1734,0.398,0.381,0.356,0.326,0.35,0.493,0.439,0.461,0.488,0.503,0.92,0.874,0.796,0.549,0.166,0.182,0.236,0.182,0.193
HOP-62,0.836,0.584,0.618,0.645,0.53,0.186,0.206,0.24,0.254,0.228,0.93,0.859,0.682,1.05,0.878,0.773,0.916,0.919,0.898
LOU-NH91,0.644,0.74,0.706,0.712,0.607,0.865,0.791,0.834,0.791,0.841,0.984,0.894,0.916,0.776,0.418,0.354,0.327,0.373,0.341
PC-14,0.511,0.486,0.523,0.642,0.485,0.184,0.229,0.217,0.266,0.217,0.927,0.873,0.909,0.848,0.141,0.139,0.152,0.148,0.0819

# From the supplement of paper PMC10307832
